These results are taken from BindingDB's records for doi:10.7270/Q2SB4462 (Burnham Center For Chemical Genomics, 2011).

This assay deals with T1, Ubiquitin-conjugating enzyme E2 N (Homo sapiens, UniProt P61088).
T1 sequence (P61088 whole entry): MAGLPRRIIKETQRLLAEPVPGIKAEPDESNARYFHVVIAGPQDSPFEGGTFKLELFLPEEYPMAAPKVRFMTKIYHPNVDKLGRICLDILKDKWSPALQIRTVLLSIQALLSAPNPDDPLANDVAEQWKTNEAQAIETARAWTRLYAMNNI
Put plainly: UBC13 polyubiquitination inhibitor potency, dose response, biochemical, TR-FRET, reconfirmation (AID 493182). (In general: TR-FRET usually uses a lanthanide donor and a delayed reading to cut background.)
Molecule `O=C1N=c2ccccc2=C1NNC(=S)NCC1CCCO1` (stereo not given) displayed an IC50 of 0.967 µM.

`Cc1cccc(NC(=S)NNC2=c3ccccc3=NC2=O)c1` showed an IC50 of 0.594 µM.

In turn, `COc1ccc(CN=Nc2cc(C)nc3ccc(OC)cc23)c(OC)c1` gave an IC50 of 6.39 µM.

In turn, `Cc1cc(C)c2c(c1)=C(NNC(=S)NCC1CCCO1)C(=O)N=2` (stereo not given) had an IC50 of 0.509 µM.

The molecule `O=C1Nc2ccc([N+](=O)[O-])cc2C1=NNC(=S)NCC1CCCO1` (stereo not given) registered an IC50 of 0.664 µM. This IC50 and that of the molecule before are within 1.5-fold of each other.

Molecule `NC(=S)NN=C1C(=O)N(CCCl)c2ccccc21` registered an IC50 of 10.8 µM.

`COC(=O)c1ccc(CN2C(=O)C(=NNC(N)=S)c3ccccc32)o1` showed an IC50 above 20 µM.

Regarding `CCOC(=O)C1C(COC(=O)c2ncc(Cl)c(Cl)c2Cl)=NC(=O)NC1C` (stereo not given), the IC50 is 9.23 µM.

`COCCNC(=S)NN=C1C(=O)Nc2ccc([N+](=O)[O-])cc21` [1-(2-methoxyethyl)-3-[(5-nitro-2-oxoindol-3-yl)amino]thiourea] registered an IC50 of 1.52 µM.

`O=C1Nc2ccccc2/C1=N/NC(=S)Nc1ccc(O)cc1` [1-(4-hydroxyphenyl)-3-[(2-oxidanylideneindol-3-yl)amino]thiourea] displayed an IC50 of 0.763 µM.

In turn, `CCCCNC(=S)N/N=C1\C(=O)Nc2ccccc21` [1-butyl-3-[(2-oxidanylideneindol-3-yl)amino]thiourea] showed an IC50 of 5.96 µM. This IC50 is about 7.8-fold higher than that of the molecule before.

The molecule `CCNC(=S)NNC1=c2cc(C(C)C)ccc2=NC1=O` [1-ethyl-3-[(2-oxo-5-propan-2-yl-3-indolyl)amino]thiourea] came in with an IC50 of 2.49 µM. This IC50 is about 2.4-fold lower than that of the molecule before.

The molecule `CCN(CC)CCOC(=O)c1ccc(N=CC(C#N)c2nc(-c3ccc4c(c3)OCO4)cs2)cc1` (stereo not given) [2-(diethylamino)ethyl 4-[[(Z)-2-[4-(1,3-benzodioxol-5-yl)-1,3-thiazol-2-yl]-2-cyano-ethenyl]amino]benzoate] came in with an IC50 of 5.07 µM.

Regarding `CCN(CC)CCOC(=O)c1ccc(N=CC(C#N)c2nc(-c3cc4ccccc4oc3=O)cs2)cc1` (stereo not given) [2-(diethylamino)ethyl 4-[[(Z)-2-cyano-2-[4-(2-oxochromen-3-yl)-1,3-thiazol-2-yl]ethenyl]amino]benzoate], half-maximal inhibition (IC50) required 3.5 µM.

`CCN(CC)CCOC(=O)c1ccc(N=CC(C#N)c2nc(-c3ccc(OC)cc3)cs2)cc1` (stereo not given) [4-[[(Z)-2-cyano-2-[4-(4-methoxyphenyl)-2-thiazolyl]ethenyl]amino]benzoic acid 2-(diethylamino)ethyl ester] displayed an IC50 of 4.3 µM.

In turn, `CC(=O)N1N=C(C2C(=O)N(C)C(=O)N(C)C2=O)CC1c1ccccc1` (stereo not given) [5-(1-acetyl-5-phenylpyrazolidin-3-ylidene)-1,3-dimethyl-1,3-diazinane-2,4,6-trione] displayed an IC50 of 19.5 µM.

For `N=C(N)C1=CC(=O)/C(=C/C=c2ccc(=C(N)N)cc2)C=C1` [(4E)-4-[2-[4-[bis(azanyl)methylidene]cyclohexa-2,5-dien-1-ylidene]ethylidene]-3-oxidanylidene-cyclohexa-1,5-diene-1-carboximidamide;2-oxidanylethanesulfonic acid], the IC50 was determined as 2.8 µM. This IC50 lies about 7-fold lower than the previous one.

The molecule `C#CCOCCOCCOCCNc1nc(N2CCN(C(=O)CCCCCCCCCCNC(=O)[C@H](CCCCN)n3cc(CCCC(=O)O)nn3)CC2)nc(N2CCN(C(=O)CCCCCCCCCCNC(=O)[C@H](CCCN=C(N)N)n3cc(C[C@@H](C)CC)nn3)CC2)n1` [EK-IR] registered a concentration for half-maximal inhibition (IC50) of 3.61 µM.

`C#CCOCCOCCOCCNc1nc(N2CCN(C(=O)CCCCCCCCCCNC(=O)[C@H]([C@@H](C)CC)n3cc(CCCCN=C(N)N)nn3)CC2)nc(N2CCN(C(=O)CCCCCCCCCCNC(=O)[C@@H]([C@H](C)O)n3cc(C)nn3)CC2)n1` [GT-RI] displayed an IC50 of 4.63 µM.

For the molecule `C#CCOCCOCCOCCNc1nc(N2CCN(C(=O)CCCCCCCCCCNC(=O)Cn3cc(CCCCCN)nn3)CC2)nc(N2CCN(C(=O)CCCCCCCCCCNC(=O)[C@H]([C@@H](C)CC)n3cc(CCCCN=C(N)N)nn3)CC2)n1` [KG-RI], the IC50 was 2.11 µM.

For `C#CCOCCOCCOCCNc1nc(N2CCN(C(=O)CCCCCCCCCCNC(=O)Cn3cc(CCCCCN)nn3)CC2)nc(N2CCN(C(=O)CCCCCCCCCCNC(=O)Cn3cc(C[C@@H](C)O)nn3)CC2)n1` [KG-TG], the IC50 turned out to be 7.41 µM. This IC50 lies about 3.5-fold higher than the previous one.

As to `C#CCOCCOCCOCCNc1nc(N2CCN(C(=O)CCCCCCCCCCNC(=O)[C@H]([C@@H](C)CC)n3cc(CCCCCN)nn3)CC2)nc(N2CCN(C(=O)CCCCCCCCCCNC(=O)[C@H](CCCCN)n3cc(CCCC(=O)O)nn3)CC2)n1` [KI-EK], the IC50 amounted to 6.08 µM.

For the molecule `C#CCOCCOCCOCCNc1nc(N2CCN(C(=O)CCCCCCCCCCNC(=O)[C@@H](CCC(=O)O)n3cc(CCCCCN)nn3)CC2)nc(N2CCN(C(=O)CCCCCCCCCCNC(=O)[C@H]([C@@H](C)CC)n3cc(CCCCCN)nn3)CC2)n1` [KI-KE], half-maximal inhibition (IC50) required 6.61 µM.

`C#CCOCCOCCOCCNc1nc(N2CCN(C(=O)[C@H](Cc3cc4ccccc4[nH]3)n3cc([C@@H](N)CC(C)C)nn3)CC2)nc(N2CCN(C(=O)[C@H](Cc3cc4ccccc4[nH]3)n3cc([C@@H](N)CC(C)C)nn3)CC2)n1` [LW-LW] showed an IC50 of 6.4 µM.

`CCOC(=O)c1c(C)c2c(n1C)CCCC2N=O` (stereo not given) [MLS000026784] registered an IC50 of 8.75 µM.

In turn, `C#CCOCCOCCOCCNc1nc(N2CCN(C(=O)[C@H](CCCCN)n3cc([C@@H](N)C(C)CC)nn3)CC2)nc(N2CCN(C(=O)[C@H](Cc3cc4ccccc4[nH]3)n3cc([C@@H](N)C(C)CC)nn3)CC2)n1` (stereo not given in full) [MLS000562580] returned an IC50 of 2.68 µM.

`C#CCOCCOCCOCCNc1nc(N2CCN(C(=O)[C@H](Cc3cc4ccccc4[nH]3)n3cc([C@@H](N)C(C)CC)nn3)CC2)nc(N2CCN(C(=O)[C@H](CCCCN)n3cc([C@@H](N)CC(C)C)nn3)CC2)n1` (stereo not given in full) [MLS000562581]: the IC50 was determined as 2.07 µM.

On to `COCCNC(=S)NNC1=c2cc(C)cc(C)c2=NC1=O` [MLS000774564], for which the midpoint of inhibition, the IC50, lay at 0.561 µM.

On to `CCOC(=O)C1C(COC(=O)c2cc(OC)c(OC)c(OC)c2)=NC(=O)NC1C` (stereo not given) [MLS001161811], for which inhibition was half-maximal at 8.55 µM (IC50).

Take `Oc1c(Cc2cnc[nH]2)[nH]c(=S)n1-c1ccccc1` [MLS001163810]: the half-inhibitory concentration (IC50) was 4 µM.

Molecule `C#CCOCCOCCOCCNc1nc(N2CCN(C(=O)CCCCCCCCCCNC(=O)Cn3cc(C[C@@H](C)O)nn3)CC2)nc(N2CCN(C(=O)CCCCCCCCCCNC(=O)[C@H](CCCN=C(N)N)n3cc(C[C@@H](C)CC)nn3)CC2)n1` [MLS002153601] gave an IC50 of 4.86 µM.

As for `C#CCOCCOCCOCCNc1nc(N2CCN(C(=O)CCCCCCCCCCNC(=O)[C@H](CCCCN)n3cc(CCO)nn3)CC2)nc(N2CCN(C(=O)CCCCCCCCCCNC(=O)[C@H](CCCCN)n3cc(CCCC(=O)O)nn3)CC2)n1` [MLS002153608], the IC50 worked out at 10.4 µM.

On to `C#CCOCCOCCOCCNc1nc(N2CCN(C(=O)CCCCCCCCCCNC(=O)[C@H](CCCCN)n3cc(C)nn3)CC2)nc(N2CCN(C(=O)CCCCCCCCCCNC(=O)[C@H](CCCN=C(N)N)n3cc(C[C@@H](C)CC)nn3)CC2)n1` [MLS002153614], for which it took 2.18 µM to reach half-maximal inhibition (IC50).

`C#CCOCCOCCOCCNc1nc(N2CCN(C(=O)CCCCCCCCCCNC(=O)[C@H](CCCCN)n3cc(C)nn3)CC2)nc(N2CCN(C(=O)CCCCCCCCCCNC(=O)[C@@H]([C@H](C)CC)n3cc(CCCCCN)nn3)CC2)n1` [MLS002153655] returned an IC50 of 2.23 µM. This IC50 and that of the molecule before are within 1.5-fold of each other.

In the case of `C#CCOCCOCCOCCNc1nc(N2CCN(C(=O)CCCCCCCCCCNC(=O)Cn3cc(CCCCCN)nn3)CC2)nc(N2CCN(C(=O)CCCCCCCCCCNC(=O)[C@H](CO)n3cc(CCCSC)nn3)CC2)n1` [MLS002153667], the IC50 stood at 4.08 µM.

Broadly, the IC50 is the point on the concentration scale where inhibition reaches its midpoint. A low value points to greater potency.
